A short description of data set [1]: Maintenance of reducing power of stored ascorbic acid solution over time (iodometry, FIG. 1). The note with it: for Reducing activity of degradation by-product: compared with initial ascorbic acid.
Data set [2] relates to trout fingerlings. The data set can be described thus: Tests of known dechlorination agents for use with biological detector. The text has this: The inventors carried out a number of experiments to test the various known dechlorination agents mentioned above.
For data set [3], the system named is trout fingerlings. The data set can be described thus: Toxicity of chlorine for trout fingerlings: aquarium with increasing concentrations of sodium hypochlorite. Format: in vivo. The note with it: maintained 8 hours. As for the experimental part: This toxicity of chlorine for trout fingerlings has also been shown by the inventors. Twelve trout fingerlings were maintained in an aquarium containing water chlorinated with increasing concentrations of sodium hypochlorite. Each chlorine concentration was maintained for a period of 8 hours. The aquarium was placed under permanent aeration using an air pump equipped with a porous diffuser. The following table presents the results observed during this experiment.
The following table presents the results observed during this experiment. ([Cl2]=chlorine disinfectant expressed in equivalent Cl2.)

Data set [4] deals with trout fingerlings. The note with it: ascorbic acid 75 mg/l, 6 trout fingerlings, 15 days. The text has this: As for the TruitoSEM, the aquarium was maintained under constant aeration.
The nature of data set [5]: Effect of excess ascorbic acid on pH, dissolved oxygen and residual chlorine in artificially chlorinated distributed water. The settings on record: stoichiometric or slight excess of reducing agent. The text has this:
In order to ensure effective dechlorination, it is advantageous to control the system using a chlorine analyzer (a metering pump controlled by a chlorine analyzer). However, to avoid this metering pump control, it is possible to work with a slight excess of ascorbic acid. […] Experiments were thus carried out in this area on artificially chlorinated distributed water to verify these effects.
It should be noted that the pH still remains in a range favorable to the survival of trout fingerlings regardless of the initial pH of the distributed water.

Data set [6] relates to Fario trout fingerlings. The data set can be described thus: Validation of treatment installation coupled with TruitoSEM biological detector.
Data set [7] has as its system trout fingerlings. The data set can be described thus: Flowing dechlorination tests in the presence of trout fingerlings. Format: in vivo. The note with it: continuous period of several days. How it is done:
The dechlorinated water flowing out of the mixer directly feeds the aquarium, which is equipped with two probes to measure dissolved oxygen, pH and temperature in real time. The aquarium is maintained under permanent aeration so that stress is not induced in the fish due to a lack of dissolved oxygen.
These flowing dechlorination tests were then carried out in the presence of trout fingerlings, for a continuous period of several days.

Data set [8] is described as follows: Flowing dechlorination test without trout fingerlings (metering pump, in-line mixer, FIG. 2).

Entries after “also recorded” stand apart in the source; their conditions may differ.

As to `CCC(=O)C=O` [ethylglyoxal], in data set [1], the “Reducing activity of degradation by-product” value is “lessened reducing activity”.

Take `O=C1O[C@H]([C@@H](O)CO)C([O-])=C1O.[Na+]` [Sodium ascorbate, sodium ascorbate]: the Stability of reagent result in data set [2] was “lack of stability”.

In the case of `O=S([O-])O.[Na+]` [sodium bisulfite, sodium bisulfite (NaHSO3)], the “Outcome for trout fingerlings” value in data set [2] (various implementation conditions) is recorded as “death of the trout fingerlings”.

With `OCl` [sodium hypochlorite], the Effects observed result in data set [3] ([Cl2] 0.25 mg/l) is reported as “No effect”; in data set [3] ([Cl2] 0.70 mg/l), “Reduction in mobility; also recorded: Accelerated ventilation”; in data set [3] ([Cl2] 1.4 mg/l), “Highly reduced mobility; also recorded: Loss of appetite; also recorded: Very high ventilation; also recorded: Reduction in the size of the iris”; in data set [3] ([Cl2] 2.1 mg/l) it was “Swimming on the side then on the back; also recorded: Death”. Also, the Mortality % observed in data set [3] ([Cl2] 0.25 mg/l, 12 trout fingerlings) stood at 0%; in data set [3] ([Cl2] 0.70 mg/l), 10%; in data set [3] ([Cl2] 1.4 mg/l), 60%; in data set [3] ([Cl2] 2.1 mg/l), 100%.

With `O=C1O[C@H]([C@@H](O)CO)C(O)=C1O` [ascorbic acid, L-ascorbic acid], the “Behavior of trout fingerlings” value in data set [4] is on record as “did not show any significant change in the behavior”. Moreover, in data set [1] (10% ascorbic acid solution, darkness, approx. 20° C., after 35 days), the “Reduction in reducing power over time” value was −10%. In data set [1] (ascorbic acid after 60 days, FIG. 1), the “Loss of reducing activity” value stood at 5%. Also, the “Effectiveness of the product (chlorine elimination) after storage” value in data set [1] (at least 20% (200 g/l) solution, after 60 days of use) is “approximately 95%”. For the same compound, the “Residual chlorine concentration after treatment” value in data set [5] was below 0.1 mg/L. For the same compound, in data set [6] (8 hours/day for twenty days, real operating conditions), the “Mortality of biological indicators” value is recorded as “did not generate any mortality”. Also, the “Elimination of chlorine in installation” value in data set [6] (in-flow 4.5 mg/l Cl2, water 160 l/h, 20% ascorbic acid 0.036 l/h, solution stored 0 to 60 days) is “complete neutralization”. The “Physical signs and mobility of trout fingerlings” value in data set [7] was “no abnormal physical signs and normal mobility”. For the same compound, the “Ascorbic acid flow rate for effective dechlorination” value amounted to 0.036 L/h in data set [8] (20% solution stored 60 days away from light at ambient temperature (R=3)) and 0.030 L/h in data set [8] (20% solution, t=0, optimal setting (R=2.5)). In data set [8] (ascorbic acid 60 days old), the “Decrease of speed of reaction with chlorine” value came out at 16%. Also, the Dechlorination yield in data set [8] (initial chlorine 4.5 mg/l equivalent Cl2, 20% ascorbic acid flow rate 0.030 l/h (R=2.5)) was around 100%.

As for `O=C1O[C@H]([C@@H](O)CO)C(=O)C1=O` [dehydroascorbic acid], the “Reducing activity of degradation by-product” value in data set [1] is recorded as “equivalent to that of the initial ascorbic acid”.

For the origin of these results see patent publication US7531360B2, “Method of dechlorination treatment of flowing water, in particular upstream of a biological pollution detector” (Societe des Eaux de Marseille, priority 2005, dated 2009).
